Assay results as given in ChEMBL document CHEMBL1140254, “A novel [99mTc[triple bond]N]2+ complex of metronidazole xanthate as a potential agent for targeting hypoxia” (Bioorg Med Chem Lett, 2005).

Key:
[1] = Biodistribution of the labeled compound in mice lungs 180 min after post-injection; format: ADME, organism-based, Lung; conditions: mouse, in vivo, 3 h
[2] = Biodistribution of the labeled compound in mice spleen 60 min after post-injection; format: ADME, organism-based; conditions: mouse, in vivo, 1 h
[3] = Biodistribution of the labeled compound in mice kidney 30 min after post-injection; format: ADME, organism-based; conditions: mouse, in vivo, 0.5 h
[4] = Biodistribution of the labeled compound in mice lungs 30 min after post-injection; format: ADME, organism-based, Lung; conditions: mouse, in vivo, 0.5 h
[5] = Biodistribution of the labeled compound in mice tumor 60 min after post-injection at adose 1.44 g; format: ADME, organism-based; conditions: mouse, in vivo, 1 h
Mus musculus [6] = species on record: Mus musculus; assay: Tumor/blood ratio of the label compound in mice 180 min after post injection; format: functional
[7] = Biodistribution of the labeled compound in mice stomach 60 min after post-injection; format: ADME, organism-based; conditions: mouse, in vivo, 1 h
[8] = Biodistribution of the labeled compound in mice liver 60 min after post-injection; format: ADME, organism-based; conditions: mouse, in vivo, 1 h
[9] = Biodistribution of the labeled compound in mice int +GB 30 min after post-injection; format: ADME, organism-based; conditions: mouse, in vivo, 0.5 h
[10] = Biodistribution of the labeled compound in mice kidney 180 min after post-injection; format: ADME, organism-based; conditions: mouse, in vivo, 3 h
[11] = Biodistribution of the labeled compound in mice muscle 60 min after post-injection; format: ADME, organism-based, Muscle tissue; conditions: mouse, in vivo, 1 h
[12] = Biodistribution of the labeled compound in mice Muscle 30 min after post-injection; format: ADME, organism-based, Muscle tissue; conditions: mouse, in vivo, 0.5 h
[13] = Biodistribution of the labeled compound in mice int+GB 180 min after post-injection; format: ADME, organism-based; conditions: mouse, in vivo, 3 h
[14] = Biodistribution of the labeled compound in mice blood 180 min after post-injection; format: ADME, organism-based; conditions: mouse, in vivo, 3 h
Mus musculus [15] = species on record: Mus musculus; assay: Tumor/muscle ratio of the label compound in mice 180 min after post injection; format: functional, Muscle tissue
Mus musculus [16] = species on record: Mus musculus; assay: Tumor/muscle ratio of the label compound in mice 30 min after post injection; format: functional, Muscle tissue
[17] = Biodistribution of the labeled compound in mice kidney 60 min after post-injection; format: ADME, organism-based; conditions: mouse, in vivo, 1 h
[18] = Biodistribution of the labeled compound in mice liver 30 min after post-injection; format: ADME, organism-based; conditions: mouse, in vivo, 0.5 h
[19] = Biodistribution of the labeled compound in mice heart 60 min after post-injection; format: ADME, organism-based; conditions: mouse, in vivo, 1 h
[20] = Biodistribution of the labeled compound in mice tumor 30 min after post-injection at a dose of 1.42 g; format: ADME, organism-based; conditions: mouse, in vivo, 0.5 h
Mus musculus [21] = species on record: Mus musculus; assay: Tumor/muscle ratio of the label compound in mice 60 min after post injection; format: functional, Muscle tissue
[22] = Biodistribution of the labeled compound in mice blood 30 min after post-injection; format: ADME, organism-based; conditions: mouse, in vivo, 0.5 h
[23] = Biodistribution of the labeled compound in mice stomach 180 min after post-injection; format: ADME, organism-based; conditions: mouse, in vivo, 3 h
[24] = Biodistribution of the labeled compound in mice heart 30 min after post-injection; format: ADME, organism-based; conditions: mouse, in vivo, 0.5 h
[25] = Biodistribution of the labeled compound in mice liver 180 min after post-injection; format: ADME, organism-based; conditions: mouse, in vivo, 3 h
[26] = Biodistribution of the labeled compound in mice spleen 180 min after post-injection; format: ADME, organism-based; conditions: mouse, in vivo, 3 h
[27] = Biodistribution of the labeled compound in mice bone 60 min after post-injection; format: ADME, organism-based, Bone element; conditions: mouse, in vivo, 1 h
Mus musculus [28] = species on record: Mus musculus; assay: Tumor/blood ratio of the label compound in mice 30 min after post injection; format: functional
[29] = Biodistribution of the labeled compound in mice blood 60 min after post-injection; format: ADME, organism-based; conditions: mouse, in vivo, 1 h
[30] = Biodistribution of the labeled compound in mice spleen 30 min after post-injection; format: ADME, organism-based; conditions: mouse, in vivo, 0.5 h
[31] = Biodistribution of the labeled compound in mice stomach 30 min after post-injection; format: ADME, organism-based; conditions: mouse, in vivo, 0.5 h
[32] = Biodistribution of the labeled compound in mice int+GB 60 min after post-injection; format: ADME, organism-based; conditions: mouse, in vivo, 1 h
[33] = Biodistribution of the labeled compound in mice bone 180 min after post-injection; format: ADME, organism-based, Bone element; conditions: mouse, in vivo, 3 h
[34] = Biodistribution of the labeled compound in mice bone 30 min after post-injection; format: ADME, organism-based, Bone element; conditions: mouse, in vivo, 0.5 h
[35] = Biodistribution of the labeled compound in mice heart 180 min after post-injection; format: ADME, organism-based; conditions: mouse, in vivo, 3 h
[36] = Biodistribution of the labeled compound in mice tumor 180 min after post-injection at adose 1.36 g; format: ADME, organism-based; conditions: mouse, in vivo, 3 h
[37] = Biodistribution of the labeled compound in mice lungs 60 min after post-injection; format: ADME, organism-based, Lung; conditions: mouse, in vivo, 1 h
Mus musculus [38] = species on record: Mus musculus; assay: Tumor/blood ratio of the label compound in mice 60 min after post injection; format: functional
[39] = Biodistribution of the labeled compound in mice muscle 180 min after post-injection; format: ADME, organism-based, Muscle tissue; conditions: mouse, in vivo, 3 h

Biodistribution [1]: 0.75
Biodistribution [2]: 0.34
Biodistribution [3]: 4.25
Biodistribution [4]: 1.59
Biodistribution [5]: 0.43
Biodistribution [7]: 0.74
Biodistribution [8]: 23.53
Biodistribution [9]: 12.46
Biodistribution [10]: 2.87
Biodistribution [11]: 6.43
Biodistribution [12]: 11.19
Biodistribution [13]: 32.52
Biodistribution [14]: 3.95
Biodistribution [17]: 3.18
Biodistribution [18]: 29.32
Biodistribution [19]: 0.27
Biodistribution [20]: 0.4
Biodistribution [22]: 11.45
Biodistribution [23]: 0.71
Biodistribution [24]: 0.38
Biodistribution [25]: 18.37
Biodistribution [26]: 0.27
Biodistribution [27]: 2.43
Biodistribution [29]: 6.75
Biodistribution [30]: 0.25
Biodistribution [31]: 1.68
Biodistribution [32]: 20.19
Biodistribution [33]: 2.27
Biodistribution [34]: 2.59
Biodistribution [35]: 0.27
Biodistribution [36]: 0.41
Biodistribution [37]: 1.09
Biodistribution [39]: 4.2
SMILES: Cc1ncc([N+](=O)[O-])n1CCOC(=S)[S-].[Na+] [METRONIDAZOLE XANTHATE]
Ratio (Mus musculus [6]): 0.62
Ratio (Mus musculus [15]): 3.35
Ratio (Mus musculus [16]): 1.19
Ratio (Mus musculus [21]): 2.15
Ratio (Mus musculus [28]): 0.2
Ratio (Mus musculus [38]): 0.36
